From US9833497B2, “Human originated EGF domain proteins and use of the same” (CHENGDU SOURCEBIO LIMITED-LIABILITY COMPANY, priority 2013, dated 2017)

Legend:
Format in all cases: cell-based
[1] = system: Citrobacter diversus; assay: MIC against Gram-negative bacteria: Citrobacter diversus
How it was run: (§1)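 Bacteria grown in LB at 37° C to McFarland 0.5, resuspended and seeded at 5×10^5 CFU/mL in 96-well plates. Purified human EGF-domain proteins two-fold serially diluted, triplicate wells; cultured at 37° C, shaking 175 rpm. MIC = lowest protein concentration with no growth.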

[2] = system: Moraxella catarrhalis; assay: MIC against Gram-negative bacteria: Moraxella catarrhalis
How it was run: as §1

[3] = system: Aeromonas hydrophila; assay: MIC against Gram-negative bacteria: Aeromonas hydrophila
How it was run: as §1

[4] = system: Klebsiella pneumonia; assay: MIC against Gram-negative bacteria: Klebsiella pneumonia
How it was run: as §1

[5] = system: Proteus mirabilis; assay: MIC against Gram-negative bacteria: Proteus mirabilis
How it was run: as §1

[6] = system: Serratia marcescens; assay: MIC against Gram-negative bacteria: Serratia marcescens
How it was run: as §1

[7] = system: E. coli BL21; assay: MIC against Gram-negative bacteria: E. coli BL21
How it was run: as §1

[8] = system: E. coli DH5α; assay: Antibacterial activity: MIC and growth curve against E. coli DH5α in 96-well plate; details: minimal inhibitory concentration against E. coli DH5α; 96-well plate, 5×10^5 CFU/mL, 37° C., judged after 8 h
How it was run: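 MIC taken as lowest protein level with no bacterial growth, tracked by A600 every 30 min during 37 °C, 175 rpm culture. Two-fold protein series 50-12.5 μg/mL final, triplicate wells, against 5×10^5 CFU/mL of LB-washed mid-log cells.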

[9] = system: Proteus vulgaris; assay: MIC against Gram-negative bacteria: Proteus vulgaris
How it was run: as §1

[10] = system: Enterobacter cloacae; assay: MIC against Gram-negative bacteria: Enterobacter cloacae
How it was run: as §1

[11] = system: Pseudomonas aeruginosa; assay: MIC against Gram-negative bacteria: Pseudomonas aeruginosa
How it was run: as §1

[12] = 96-well plate, 5×10^5 CFU/mL, 37° C., 10 h

PRT937 (DIDECISKPCMNHGLCHNTQGSYMCECPPGFSGMDCE; listed as Homo sapiens)
MIC ([1]; C. diversus, 10 h cultivation at 37° C.): 25 µg/mL
MIC ([2]; M. catarrhalis, 10 h cultivation at 37° C.): 12.5 µg/mL
MIC ([3]; A. hydrophila, 10 h cultivation at 37° C.): 50 µg/mL
MIC ([4]; K. pneumonia, 10 h cultivation at 37° C.): 25 µg/mL
MIC ([5]; P. mirabilis, 10 h cultivation at 37° C.): 50 µg/mL
MIC ([6]; S. marcescens, 10 h cultivation at 37° C.): 50 µg/mL
MIC ([7]; E. coli BL21, 10 h cultivation at 37° C.): 12.5 µg/mL
MIC [8]: 25 µg/mL
MIC ([9]; P. vulgaris, 10 h cultivation at 37° C.): 12.5 µg/mL
MIC ([10]; E. cloacae, 10 h cultivation at 37° C.): 12.5 µg/mL
MIC ([11]; P. aeruginosa, 10 h cultivation at 37° C.): 50 µg/mL

PRT842 (CGCSFHSHCRKRGPGFCDECQDWTWGEHCERCRPGSFGNATGSRGCRP; listed as Homo sapiens)
MIC (μg/mL) C. diversus ([1]; C. diversus, 10 h cultivation at 37° C., 5×10^5 CFU/mL): 12.5 µg/mL
MIC (μg/mL) M. catarrhalis ([2]; M. catarrhalis, 10 h cultivation at 37° C., 5×10^5 CFU/mL): 25 µg/mL
MIC (μg/mL) A. hydrophila ([3]; A. hydrophila, 10 h cultivation at 37° C., 5×10^5 CFU/mL): 25 µg/mL
MIC (μg/mL) K. pneumonia ([4]; K. pneumonia, 10 h cultivation at 37° C., 5×10^5 CFU/mL): 25 µg/mL
MIC (μg/mL) P. mirabilis ([5]; P. mirabilis, 10 h cultivation at 37° C., 5×10^5 CFU/mL): 12.5 µg/mL
MIC (μg/mL) S. marcescens ([6]; S. marcescens, 10 h cultivation at 37° C., 5×10^5 CFU/mL): 25 µg/mL
MIC (μg/mL) E. coli BL21 ([7]; E. coli BL21, 10 h cultivation at 37° C., 5×10^5 CFU/mL): 12.5 µg/mL
MIC [8]: 12.5 µg/mL
MIC (μg/mL) P. vulgaris ([9]; P. vulgaris, 10 h cultivation at 37° C., 5×10^5 CFU/mL): 12.5 µg/mL
MIC (μg/mL) E. cloacae ([10]; E. cloacae, 10 h cultivation at 37° C., 5×10^5 CFU/mL): 12.5 µg/mL
MIC (μg/mL) P. aeruginosa ([11]; P. aeruginosa, 10 h cultivation at 37° C., 5×10^5 CFU/mL): 25 µg/mL

PRT683 (DIDECSQDPSLCLPHGACKNLQGSYVCVCDEGFTPTQDQHGCE; listed as Homo sapiens)
MIC C. diversus [1, 12]: 25 µg/mL
MIC M. catarrhalis [2, 12]: 25 µg/mL
MIC A. hydrophila [3, 12]: 50 µg/mL
MIC K. pneumonia [4, 12]: 25 µg/mL
MIC P. mirabilis [5, 12]: 12.5 µg/mL
MIC S. marcescens [6, 12]: 25 µg/mL
MIC E. coli BL21 [7, 12]: 25 µg/mL
MIC [8]: 12.5 µg/mL
MIC P. vulgaris [9, 12]: 50 µg/mL
MIC E. cloacae [10, 12]: 12.5 µg/mL
MIC P. aeruginosa [11, 12]: 50 µg/mL

PRT1430 (DINECAHADPCFPGSSCINTMPGFHCEACPRGYKGTQVS; listed as Homo sapiens)
MIC against C. diversus ([1]; Citrobacter diversus, 5×10^5 CFU/mL, 10 h cultivation at 37° C.): 25 µg/mL
MIC against M. catarrhalis ([2]; Moraxella catarrhalis, 5×10^5 CFU/mL, 10 h cultivation at 37° C.): 12.5 µg/mL
MIC against A. hydrophila ([3]; Aeromonas hydrophila, 5×10^5 CFU/mL, 10 h cultivation at 37° C.): 12.5 µg/mL
MIC against K. pneumonia ([4]; Klebsiella pneumonia, 5×10^5 CFU/mL, 10 h cultivation at 37° C.): 12.5 µg/mL
MIC against P. mirabilis ([5]; Proteus mirabilis, 5×10^5 CFU/mL, 10 h cultivation at 37° C.): 25 µg/mL
MIC against S. marcescens ([6]; Serratia marcescens, 5×10^5 CFU/mL, 10 h cultivation at 37° C.): 25 µg/mL
MIC against E. coli BL21 ([7]; E. coli BL21, 5×10^5 CFU/mL, 10 h cultivation at 37° C.): 12.5 µg/mL
MIC [8]: 25 µg/mL
MIC against P. vulgaris ([9]; Proteus vulgaris, 5×10^5 CFU/mL, 10 h cultivation at 37° C.): 12.5 µg/mL
MIC against E. cloacae ([10]; Enterobacter cloacae, 5×10^5 CFU/mL, 10 h cultivation at 37° C.): 25 µg/mL
MIC against P. aeruginosa ([11]; Pseudomonas aeruginosa, 5×10^5 CFU/mL, 10 h cultivation at 37° C.): 25 µg/mL

PRT490 (CASAPCRNGGVCREGWNRFICDCIGTGFLGRVCE; listed as Homo sapiens)
MIC against C. diversus [1, 12]: 25 µg/mL
MIC against M. catarrhalis [2, 12]: 12.5 µg/mL
MIC against A. hydrophila [3, 12]: 50 µg/mL
MIC against K. pneumonia [4, 12]: 12.5 µg/mL
MIC against P. mirabilis [5, 12]: 25 µg/mL
MIC against S. marcescens [6, 12]: 25 µg/mL
MIC against E. coli BL21 [7, 12]: 50 µg/mL
MIC [8]: 25 µg/mL
MIC against P. vulgaris [9, 12]: 50 µg/mL
MIC against E. cloacae [10, 12]: 25 µg/mL
MIC against P. aeruginosa [11, 12]: 25 µg/mL

PRT87 (DACLLNPCQNQGSCRHLPGAPHGYTCDCVGGYFGHHCE; listed as Homo sapiens)
MIC (μg/mL) C. diversus ([1]; Citrobacter diversus, 96-well plate, 5×10^5 CFU/mL, 37° C., 10 h): 50 µg/mL
MIC (μg/mL) M. catarrhalis ([2]; Moraxella catarrhalis, 96-well plate, 5×10^5 CFU/mL, 37° C., 10 h): 25 µg/mL
MIC (μg/mL) A. hydrophila ([3]; Aeromonas hydrophila, 96-well plate, 5×10^5 CFU/mL, 37° C., 10 h): 25 µg/mL
MIC (μg/mL) K. pneumonia ([4]; Klebsiella pneumonia, 96-well plate, 5×10^5 CFU/mL, 37° C., 10 h): 50 µg/mL
MIC (μg/mL) P. mirabilis ([5]; Proteus mirabilis, 96-well plate, 5×10^5 CFU/mL, 37° C., 10 h): 12.5 µg/mL
MIC (μg/mL) S. marcescens ([6]; Serratia marcescens, 96-well plate, 5×10^5 CFU/mL, 37° C., 10 h): 50 µg/mL
MIC (μg/mL) E. coli BL21 ([7]; E. coli BL21, 96-well plate, 5×10^5 CFU/mL, 37° C., 10 h): 12.5 µg/mL
MIC [8]: 12.5 µg/mL
MIC (μg/mL) P. vulgaris ([9]; Proteus vulgaris, 96-well plate, 5×10^5 CFU/mL, 37° C., 10 h): 25 µg/mL
MIC (μg/mL) E. cloacae ([10]; Enterobacter cloacae, 96-well plate, 5×10^5 CFU/mL, 37° C., 10 h): 12.5 µg/mL
MIC (μg/mL) P. aeruginosa ([11]; Pseudomonas aeruginosa, 96-well plate, 5×10^5 CFU/mL, 37° C., 10 h): 12.5 µg/mL
